Our source for the IC50 values is patent US11084829B2, “Ubiquitin-specific-processing protease 7 (USP7) modulators and uses thereof” (RAPT THERAPEUTICS, INC., priority 2018, dated 2021).

In the test the target is USP7 (Homo sapiens, UniProt Q93009). Kind of test: USP7 inhibitory potency (IC50). The format is biochemical. The method, then:
Activity for compounds described herein is provided in Table 2, wherein potency levels are provided as follows: (Potency: USP7 IC50: A<0.01 μM; B=0.01-0.1 μM; C=>0.1 μM.

Usually IC50 stands for the concentration that inhibits the measured activity by half. A high value points to weaker potency in that assay.

Sequence of USP7 (Q93009 whole entry): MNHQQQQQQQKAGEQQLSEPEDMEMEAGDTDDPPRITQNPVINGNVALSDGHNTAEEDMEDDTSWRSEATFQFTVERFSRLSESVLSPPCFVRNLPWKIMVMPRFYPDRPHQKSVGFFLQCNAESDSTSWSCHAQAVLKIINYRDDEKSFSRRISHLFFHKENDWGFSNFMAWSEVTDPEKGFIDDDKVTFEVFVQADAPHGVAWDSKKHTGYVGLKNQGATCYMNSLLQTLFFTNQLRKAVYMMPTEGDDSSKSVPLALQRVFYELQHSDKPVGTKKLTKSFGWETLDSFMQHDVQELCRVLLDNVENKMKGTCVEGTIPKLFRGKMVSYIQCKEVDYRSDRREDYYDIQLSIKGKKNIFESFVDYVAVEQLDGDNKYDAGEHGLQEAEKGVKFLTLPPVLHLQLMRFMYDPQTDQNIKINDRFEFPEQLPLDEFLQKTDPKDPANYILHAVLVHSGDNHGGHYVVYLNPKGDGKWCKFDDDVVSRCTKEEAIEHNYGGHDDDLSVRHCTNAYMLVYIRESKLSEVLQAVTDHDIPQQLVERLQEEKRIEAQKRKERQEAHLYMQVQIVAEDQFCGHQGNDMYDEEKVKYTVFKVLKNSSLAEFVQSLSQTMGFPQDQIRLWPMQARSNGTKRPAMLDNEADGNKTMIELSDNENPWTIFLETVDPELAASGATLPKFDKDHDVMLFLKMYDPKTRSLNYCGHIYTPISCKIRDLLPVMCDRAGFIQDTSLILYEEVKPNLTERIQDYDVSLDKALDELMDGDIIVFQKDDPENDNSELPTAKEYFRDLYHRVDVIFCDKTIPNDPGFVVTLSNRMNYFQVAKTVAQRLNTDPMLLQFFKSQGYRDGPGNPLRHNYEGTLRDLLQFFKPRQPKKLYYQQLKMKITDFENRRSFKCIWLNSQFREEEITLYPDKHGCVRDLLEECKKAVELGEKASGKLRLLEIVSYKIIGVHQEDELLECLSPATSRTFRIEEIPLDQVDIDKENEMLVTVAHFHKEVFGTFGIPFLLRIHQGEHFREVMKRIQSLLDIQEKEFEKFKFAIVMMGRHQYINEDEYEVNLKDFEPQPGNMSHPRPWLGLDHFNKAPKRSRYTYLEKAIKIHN

Regarding `Cc1cc(Cl)cc(-c2ccnc3cc(CN4C(=O)C5CC5C4=O)sc23)c1CC1CNCCCO1` (stereo not shown) [Example 118, 3-((7-(2-((1,4-oxazepan-2-yl)methyl)-5-chloro-3-methylphenyl)thieno[3,2-b]pyridin-2-yl)methyl)-3-azabicyclo[3.1.0]hexane-2,4-dione], the IC50 was under 0.01 µM.
Compound `C[C@H]1CNCCN1Cc1ccc(Cl)cc1-c1ncnc2cc(CN3C(=O)C4CC4C3=O)sc12` (stereo partly drawn) [Example 64, 3-((4-(5-chloro-2-(((S)-2-methylpiperazin-1-yl)methyl)phenyl)thieno[3,2-d]pyrimidin-6-yl)methyl)-3-azabicyclo[3.1.0]hexane-2,4-dione] displayed an IC50 of 0.01 to 0.1 µM.
`Cc1cc(Cl)cc(-c2ccnc3cc(Cn4c(=O)ccn(CC(F)(F)F)c4=O)sc23)c1CN1CCNCC1=O` [Example 4, 3-((7-(5-chloro-3-methyl-2-((2-oxopiperazin-1-yl)methyl)phenyl)thieno[3,2-b]pyridin-2-yl)methyl)-1-(2,2,2-trifluoroethyl)pyrimidine-2,4(1H,3H)-dione] showed an IC50 of over 0.1 µM.
For `Cc1cc(Cl)cc(-c2ncnc3cc(CN4C(=O)COC4=O)sc23)c1CN1C[C@@H](C)NC[C@@H]1C` [Example 76, 3-((4-(5-chloro-2-(((2S,5R)-2,5-dimethylpiperazin-1-yl)methyl)-3-methylphenyl)thieno[3,2-d]pyrimidin-6-yl)methyl)oxazolidine-2,4-dione], the IC50 is 0.01 to 0.1 µM.
On to `Cc1cc(Cl)cc(-c2ncnc3cc(CN4C(=O)CCN(CCF)C4=O)sc23)c1C[C@@H]1CNCC(C)(C)O1` [Example 257, 3-[[4-[5-chloro-2-[[(2R)-6,6-dimethylmorpholin-2-yl]methyl]-3-methyl-phenyl]thieno[3,2-d]pyrimidin-6-yl]methyl]-1-(2-fluoroethyl)hexahydropyrimidine-2,4-dione], for which the IC50 was under 0.01 µM.
In the case of `Cc1cc(Cl)cc(-c2ncnc3cc(CN4C(=O)C5CCCCN5C4=O)sc23)c1CC1CNCCO1` (stereo not shown) [Example 184, 2-((4-(5-chloro-3-methyl-2-(morpholin-2-ylmethyl)phenyl)thieno[3,2-d]pyrimidin-6-yl)methyl)tetrahydroimidazo[1,5-a]pyridine-1,3(2H,5H)-dione] it was under 0.01 µM.
The same measure for `C[C@H]1CNCCN1Cc1c(F)cc(F)cc1-c1ncnc2cc(CN3C(=O)C4CC4C3=O)sc12` (stereo partly drawn) [Example 74, 3-((4-(3,5-difluoro-2-(((S)-2-methylpiperazin-1-yl)methyl)phenyl)thieno[3,2-d]pyrimidin-6-yl)methyl)-3-azabicyclo[3.1.0]hexane-2,4-dione]: over 0.1 µM; for `Cc1cc(Cl)cc(-c2ncnc3cc(CN4C(=O)C5CCCN5C4=O)sc23)c1CC1CNCC(C)(C)O1` (stereo not shown) [Example 191, 2-((4-(5-chloro-2-((6,6-dimethylmorpholin-2-yl)methyl)-3-methylphenyl)thieno[3,2-d]pyrimidin-6-yl)methyl)tetrahydro-1H-pyrrolo[1,2-c]imidazole-1,3(2H)-dione]: under 0.01 µM.
Consider `Cc1cc(Cl)cc(-c2ncnc3cc(CN4C(=O)CN(C)C4=O)sc23)c1CC1CNCC(C)(C)O1` (stereo not shown) [Example 183, 3-((4-(5-chloro-2-((6,6-dimethylmorpholin-2-yl)methyl)-3-methylphenyl)thieno[3,2-d]pyrimidin-6-yl)methyl)-1-methylimidazolidine-2,4-dione], for which the IC50 was under 0.01 µM.
For `Cc1cc(Cl)cc(-c2ccnc3cc(CN4C(=O)CCC4=O)sc23)c1CN1CC2CCC1CN2` (stereo not shown) [Example 9, 1-((7-(2-((2,5-diazabicyclo[2.2.2]octan-2-yl)methyl)-5-chloro-3-methylphenyl)thieno[3,2-b]pyridin-2-yl)methyl)pyrrolidine-2,5-dione], the IC50 was under 0.01 µM.
`Cc1cc(Cl)cc(-c2ncnc3cc(CN4C(=O)CCN(C)C4=O)sc23)c1CC1CNCCO1` (stereo not shown) [Example 164, 3-((4-(5-chloro-3-methyl-2-(morpholin-2-ylmethyl)phenyl)thieno[3,2-d]pyrimidin-6-yl)methyl)-1-methyldihydropyrimidine-2,4(1H,3H)-dione] registered an IC50 of under 0.01 µM.
Compound `Cc1cc(Cl)cc(-c2ccnc3cc(CN4C(=O)CCCC4=O)sc23)c1CC1CNCCO1` (stereo not shown) [Example 107, 1-((7-(5-chloro-3-methyl-2-(morpholin-2-ylmethyl)phenyl)thieno[3,2-b]pyridin-2-yl)methyl)piperidine-2,6-dione] had an IC50 of under 0.01 µM.
For the compound `Cc1cc(Cl)cc(-c2ccnc3cc(CN4C(=O)C5CC5C4=O)sc23)c1CN1CCCNC(C)C1` (stereo not shown) [Example 41, 3-((7-(5-chloro-3-methyl-2-((3-methyl-1,4-diazepan-1-yl)methyl)phenyl)thieno[3,2-b]pyridin-2-yl)methyl)-3-azabicyclo[3.1.0]hexane-2,4-dione], the IC50 lay in the range of 0.01 to 0.1 µM.
Take `CCC1CCC(=O)N1Cc1cc2ncnc(-c3cc(Cl)cc(C)c3C[C@@H]3CNCC(C)(C)O3)c2s1` (stereo partly drawn) [Example 232, 1-((4-(5-chloro-2-(((R)-6,6-dimethylmorpholin-2-yl)methyl)-3-methylphenyl)thieno[3,2-d]pyrimidin-6-yl)methyl)-5-ethylpyrrolidin-2-one]: the IC50 is 0.01 to 0.1 µM.
Regarding `Cc1cc(Cl)cc(-c2ncnc3cc(Cn4c(=O)ccn(C5CC5)c4=O)sc23)c1CC1CNCCO1` (stereo not shown) [Example 165, 3-((4-(5-chloro-3-methyl-2-(morpholin-2-ylmethyl)phenyl)thieno[3,2-d]pyrimidin-6-yl)methyl)-1-cyclopropylpyrimidine-2,4(1H,3H)-dione], the IC50 is under 0.01 µM.
In turn, `O=C1CCC(=O)N1Cc1cc2ncnc(-c3cc(Cl)cc(Cl)c3CC3CNCCO3)c2s1` (stereo not shown) [Example 204, 1-((4-(3,5-dichloro-2-(morpholin-2-ylmethyl)phenyl)thieno[3,2-d]pyrimidin-6-yl)methyl)pyrrolidine-2,5-dione] showed a concentration for half-maximal inhibition (IC50) of under 0.01 µM.
`Cc1cc(Cl)cc(-c2ncnc3cc(CN4C(=O)C5CC5C4=O)sc23)c1CN1C[C@@H](C)NC[C@@H]1C` (stereo partly drawn) [Example 65, 3-((4-(5-chloro-2-(((2S,5R)-2,5-dimethylpiperazin-1-yl)methyl)-3-methylphenyl)thieno[3,2-d]pyrimidin-6-yl)methyl)-3-azabicyclo[3.1.0]hexane-2,4-dione]: the IC50 is under 0.01 µM.
The compound `Cc1cc(Cl)cc(-c2ccnc3cc(CN4C(=O)C5CC5C4=O)sc23)c1CN1C[C@@H](C)NC[C@@H]1C` (stereo partly drawn) [Example 36, 3-((7-(5-chloro-2-(((2S,5R)-2,5-dimethylpiperazin-1-yl)methyl)-3-methylphenyl)thieno[3,2-b]pyridin-2-yl)methyl)-3-azabicyclo[3.1.0]hexane-2,4-dione] had an IC50 of 0.01 to 0.1 µM.
In turn, `C[C@H]1CNCCN1Cc1ccc(F)cc1-c1ncnc2cc(CN3C(=O)C4CC4C3=O)sc12` (stereo partly drawn) [Example 63, 3-((4-(5-fluoro-2-(((S)-2-methylpiperazin-1-yl)methyl)phenyl)thieno[3,2-d]pyrimidin-6-yl)methyl)-3-azabicyclo[3.1.0]hexane-2,4-dione] gave an IC50 of over 0.1 µM.
In the case of `Cc1cc(Cl)cc(-c2ncnc3cc(CN4C(=O)CC(C)(C)CC4=O)sc23)c1CN1C[C@@H](C)NC[C@@H]1C` [Example 70, 1-((4-(5-chloro-2-(((2S,5R)-2,5-dimethylpiperazin-1-yl)methyl)-3-methylphenyl)thieno[3,2-d]pyrimidin-6-yl)methyl)-4,4-dimethylpiperidine-2,6-dione] it was 0.01 to 0.1 µM; in that of `Cc1cc(Cl)cc(-c2ncnc3cc(Cn4c(=O)ccn(C5CCC5)c4=O)sc23)c1CC1CNCCO1` (stereo not shown) [Example 166, 3-((4-(5-chloro-3-methyl-2-(morpholin-2-ylmethyl)phenyl)thieno[3,2-d]pyrimidin-6-yl)methyl)-1-cyclobutylpyrimidine-2,4(1H,3H)-dione], under 0.01 µM; in that of `Cc1cc(C)c(CN2CCNC[C@@H]2C)c(-c2ncnc3cc(CN4C(=O)C5CC5C4=O)sc23)c1` (stereo partly drawn) [Example 71, 3-((4-(3,5-dimethyl-2-(((S)-2-methylpiperazin-1-yl)methyl)phenyl)thieno[3,2-d]pyrimidin-6-yl)methyl)-3-azabicyclo[3.1.0]hexane-2,4-dione], over 0.1 µM.
In turn, `CC1(C)CNCC(Cc2c(Cl)cc(Cl)cc2-c2ccnc3cc(CN4C(=O)CCC4=O)sc23)O1` (stereo not shown) [Example 128, 1-((7-(3,5-dichloro-2-((6,6-dimethylmorpholin-2-yl)methyl)phenyl)thieno[3,2-b]pyridin-2-yl)methyl)pyrrolidine-2,5-dione] showed an IC50 of under 0.01 µM.
Compound `CCN1CCN(Cc2c(C)cc(Cl)cc2-c2ncnc3cc(CN4C(=O)C5C(C4=O)C5(C)C)sc23)[C@@H](C)C1` (stereo partly drawn) [Example 54, 3-((4-(5-chloro-2-(((S)-4-ethyl-2-methylpiperazin-1-yl)methyl)-3-methylphenyl)thieno[3,2-d]pyrimidin-6-yl)methyl)-6,6-dimethyl-3-azabicyclo[3.1.0]hexane-2,4-dione] displayed an IC50 of under 0.01 µM.
Regarding `Cc1cc(Cl)cc(-c2ccnc3cc(CN4C(=O)C5CC5C4=O)sc23)c1CC1CNCC2(CC2)O1` (stereo not shown) [Example 132, 3-((7-(2-((4-oxa-7-azaspiro[2.5]octan-5-yl)methyl)-5-chloro-3-methylphenyl)thieno[3,2-b]pyridin-2-yl)methyl)-3-azabicyclo[3.1.0]hexane-2,4-dione], the IC50 is under 0.01 µM.
Compound `Cc1cc(Cl)cc(-c2ncnc3cc(CN4C(=O)C5CC5C4=O)sc23)c1C[C@@H]1CNCCO1` (stereo partly drawn) [Example 182, 3-((4-(5-chloro-3-methyl-2-(((R)-morpholin-2-yl)methyl)phenyl)thieno[3,2-d]pyrimidin-6-yl)methyl)-3-azabicyclo[3.1.0]hexane-2,4-dione] showed an IC50 of under 0.01 µM.
Take `Cc1cc(Cl)cc(-c2ncnc3cc(Cn4c(=O)ccn(C)c4=O)sc23)c1CN1C[C@@H](C)NC[C@@H]1C` [Example 66, 3-((4-(5-chloro-2-(((2S,5R)-2,5-dimethylpiperazin-1-yl)methyl)-3-methylphenyl)thieno[3,2-d]pyrimidin-6-yl)methyl)-1-methylpyrimidine-2,4(1H,3H)-dione]: the IC50 is under 0.01 µM.
For `Cc1cc(Cl)cc(-c2ncnc3cc(CN4C(=O)CNC4=O)sc23)c1C[C@@H]1CNCCO1` [Example 243, (R)-3-((4-(5-chloro-3-methyl-2-(morpholin-2-ylmethyl)phenyl)thieno[3,2-d]pyrimidin-6-yl)methyl)imidazolidine-2,4-dione], the IC50 was under 0.01 µM.
